These results are taken from PubChem BioAssay (NCI).

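Grown in 96-well plates, cells were treated for 48 hours with each compound at five concentrations. Insufficient inhibition: endpoint recorded as highest concentration tested. At the TGI there is no net growth.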 Some results are limits rather than exact numbers.

Common to all, as to assay: inhibition of tumour cell growth, NCI panel, 48 h
Assay [1] deals with UACC-62 melanoma.
Assay [2] deals with A549 NSCLC.
The subject of assay [3] is TK-10 renal.
The subject of assay [4] is OVCAR-8 ovarian.
The test system of assay [5] is PC-3 prostate.
The subject of assay [6] is HOP-62 NSCLC.
In assay [7] the test system is T-47D breast.
Assay [8] deals with HL-60(TB) leukemia.
In assay [9] the test system is A498 renal.
Assay [10] has as its system EKVX NSCLC.
The test system of assay [11] is NCI/ADR-RES ovarian.
The subject of assay [12] is NCI-H460 lung.
The test system of assay [13] is HOP-92 NSCLC.
For assay [14], the system named is K-562 leukemia.
For assay [15], the system named is SW-620 colon.
Assay [16] deals with OVCAR-5 ovarian.
Assay [17] concerns BT-549 breast.
Assay [18] concerns SNB-19 CNS.
For assay [19], the system named is RXF 393 renal.
The test system of assay [20] is NCI-H23 lung.

`COc1ccc2c(c1)CCN=C2Cc1ccccc1CCCl`: the TGI in assay [1] is 52.7 µM; in assay [2], > 100 µM; in assay [3], > 100 µM; in assay [4], 67.9 µM; in assay [5], > 100 µM; in [6] it was > 100 µM. Besides, the TGI in assay [7] was > 100 µM; in assay [8] it was 48.6 µM; in assay [9], > 100 µM; in [10], > 100 µM; in [11], 64.9 µM; in assay [12], 38.8 µM. The TGI in assay [13], in assay [14], in assay [15], in [16], in assay [17] and in assay [18] was > 100 µM each time. Moreover, the TGI was 71.7 µM in assay [19] and 81.8 µM in assay [20].
In the case of `COC(=O)C(Cc1ccccc1)NC(=O)C(CCC(=O)OCc1ccccc1)NC(=O)OC(C)(C)C` (centres undefined), the TGI in [1], in assay [2], in [3], in assay [4], in assay [5] and in [6] was > 100 µM each time. Moreover, the TGI in [7], in assay [8], in assay [9], in assay [10], in assay [11] and in assay [12] was > 100 µM throughout. Besides, the TGI in assay [13], in assay [14], in assay [15], in assay [16], in assay [17] and in assay [18] was > 100 µM each time. Further, the TGI in assay [19] and in [20] was > 100 µM in each case.
Regarding `O=Nc1c(-c2c(O)[nH]c3ccccc23)[nH]c2ccccc12`, the TGI in assay [1] was 11.1 µM; in assay [2], > 55.1 µM; in assay [3], 55.2 µM; in assay [4], > 45.5 µM; in assay [5], 28.1 µM; in [6] it was > 48.6 µM. Further, the TGI is > 48.7 µM in assay [7]; 12.3 µM in [8]; 13.9 µM in assay [9]; 9.12 µM in assay [10]; > 100 µM in assay [11]; 28.7 µM in [12]. Moreover, the TGI is > 29.6 µM in [13]; > 100 µM in assay [14]; > 100 µM in [15]; > 86.4 µM in assay [16]; 30 µM in [17]; > 100 µM in [18]. In addition, the TGI in assay [19] was 13.2 µM; in [20] it was > 44.6 µM.
For `Cc1[nH]n(C2=NCCN2)c(=O)c1C`, the TGI in assay [1], in [2], in [3], in assay [4], in assay [5] and in [6] was > 100 µM each time. Further, the TGI in assay [7], in assay [8], in [9], in assay [10], in assay [11] and in assay [12] was > 100 µM each time. Also, the TGI in assay [13], in assay [14], in assay [15], in assay [16], in assay [17] and in assay [18] was > 100 µM in each case. Besides, the TGI in assay [19] and in [20] was > 100 µM in each case.
Consider `CC(=O)OCC1OC(n2c(C#N)cc(=O)[nH]c2=O)CC1OC(C)=O` (centres undefined), for which the TGI in assay [1], in assay [2], in assay [3], in assay [4], in [5] and in [6] was > 100 µM each time. Also, the TGI in assay [7], in assay [8], in [9], in assay [10], in assay [11] and in [12] was > 100 µM throughout. Further, the TGI in assay [13], in assay [14], in [15], in [16], in assay [17] and in assay [18] was > 100 µM in each case. In addition, the TGI in assay [19] and in [20] was > 100 µM throughout.
As for `CC(C)(C)N1C(=O)c2ccccc2C1(O)C(F)(F)F` (centres undefined), the TGI in [1], in assay [2], in assay [3], in [4], in assay [5] and in [6] was > 100 µM in each case. The TGI in [7], in [8], in [9], in [10], in assay [11] and in [12] was > 100 µM throughout. In addition, the TGI in assay [13], in [14], in [15], in [16], in [17] and in [18] was > 100 µM in each case. Moreover, the TGI in assay [19] and in assay [20] was > 100 µM in each case.
For the compound `Cc1cc(S(=O)(=O)NC(=C(C#N)C#N)[n+]2ccc(N(C)C)cc2)c([S-])cc1Cl`, the TGI in [1], in [2], in assay [3], in assay [4], in assay [5] and in assay [6] was > 100 µM each time. Moreover, the TGI in [7], in assay [8], in assay [9], in assay [10], in assay [11] and in assay [12] was > 100 µM in each case. Moreover, the TGI in assay [13], in assay [14], in assay [16], in assay [17], in [18] and in [19] was > 100 µM throughout. Moreover, in assay [20], the TGI was > 100 µM.
